One test concerns ACH2 cells. The test can be described thus: virus production by ACH2 cells in micro-wells detected by WAP. Particulars: ACH2 cells stimulated vs unstimulated, all loading densities, FIG. 6(b). The class given is cell-based. How it is done:
FIGS. 6(a)-(b) illustrate one embodiment of detection/analysis of latently infected T cells using WAP. That is, as shown, WAP can be applied to study functional characteristics, such as virus production, of cells loaded into micro-wells. ACH2 cells produce HIV virus when stimulated with the cytokine TNFα. […] These cells produce virus when stimulated with TNFα, which can be contained in the media. The target cell coated slide is incubated with the array, removed, then allowed to incubate while biological signal develops (e.g. GFP accumulation). […] The median percent infection is higher in the presence of TNFα for each ACH2 cell count. In addition to assaying viral production capability, functional characteristics of virus producing cells in the micro-wells, such as gene expression, surface marker expression, or secretion of biomolecules of interest could provide functional information about virally infected cells.

The next test has as its target CCR5 (Homo sapiens, UniProt P51681). The following applies: lowers the effective CCR5 concentration; cited from earlier work.
The subject of another test is cell motility. The following applies: cited from earlier work.
In another test the test system is GHOST cells. In words: cell pattern maintenance / cell migration inhibition assay (media additives and hydrogels). It counts as cell-based. As to the method:
One significant advantage afforded by WAP is the ability to an addressable link with stimuli with delayed signal development in cells, such as infection, proliferation, or migration. For implementation of the nano-neutralization assay, a technique for preventing pattern disruption was developed over time due to proliferation and migration of GHOST cells over the course of infection signal development. The effect of several media additives and hydrogels for the maintenance of patterns was tested.
Cell patterns were formed as described above. Arrays were imaged at 0, 24, and 48 hrs immediately after addition of 1 μM calcein AM live cell stain (Life Technologies) in PBS. Media additives were diluted directly into culture media at the indicated concentration. Cell proliferation (P) was calculated per block (4 wells per block) as the ratio of cells at time of imaging to the number of starting cells at time zero. Cell migration (M) was calculated as Nfull×P−Nwell, where Nfull is the number of cells per field of view, P is the proliferation rate, and Nwell is the number of cells per well.

Sequence of CCR5 (P51681 whole entry): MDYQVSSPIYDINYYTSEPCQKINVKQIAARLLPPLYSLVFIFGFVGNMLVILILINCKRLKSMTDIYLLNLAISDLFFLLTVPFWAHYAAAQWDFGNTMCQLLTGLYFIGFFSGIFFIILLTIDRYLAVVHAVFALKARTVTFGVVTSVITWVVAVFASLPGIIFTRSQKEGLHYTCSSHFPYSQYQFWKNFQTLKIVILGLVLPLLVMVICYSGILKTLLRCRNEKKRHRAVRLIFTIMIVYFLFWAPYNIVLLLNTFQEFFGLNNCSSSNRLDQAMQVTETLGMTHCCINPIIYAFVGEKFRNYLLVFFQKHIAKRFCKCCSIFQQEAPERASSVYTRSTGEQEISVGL

Take TNFα: the “median percent infection of patterned cells” value with ACH2 cells is “greater median percent infection”.

With `Cc1ccc(-c2ccc3c(c2)C=C(C(=O)Nc2ccc(C[N+](C)(C)C4CCOCC4)cc2)CCC3)cc1.[Cl-]` [TAK779], the “effect on HIV-1 entry” value at CCR5 is “slows HIV-1 entry”.

For the compound `C[C@@H](N)[C@H]1CC[C@H](C(=O)Nc2ccncc2)CC1` [Y-27632], the “effect on cell motility and adhesion” value with cell motility is recorded as “inhibit cell motility but not adhesion”.

In the case of `CS(=O)(=O)c1cccc(CNc2nc(Nc3ccc4c(c3)CCC(=O)N4)ncc2C(F)(F)F)c1` [PF-573228], the “individual pattern maintenance for the time required for signal development” value with GHOST cells (10 μM) is “resulted in individual pattern maintenance”. Besides, the “proliferation of patterned cells (Nt/Nto per block)” value with GHOST cells (FIG. 15(b), 24 or 48 hours) was “reduced proliferation of patterned cells”. In addition, the “migration of patterned cells (number of cells migrating out of patterns)” value with GHOST cells (FIG. 15(c), p<0.0001 Mann-Whitney U test) was “reduced migration of patterned cells”. Also, in the test on GHOST cells (added to media, 0 hr vs 24 hrs post patterning, FIG. 9(f)), the “loss of cell patterns” value is recorded as “prevents loss of cell patterns”. The “effect on cell motility and adhesion” value with cell motility is “inhibit cell motility but not adhesion”.

These data come from patent publication US20150080234A1, “Cell Patterning” (priority 2013, published 2015).
